Data published in article PMC10090470 (Parasitology, 2023).
Where two headings read alike, the source gives them in different places.

Key:
[1] = test system: intracellular forms of Trypanosoma cruzi (Tulahuen strain, DTU VI); assay: In vitro activity against intracellular forms of T. cruzi (Tulahuen strain, β-galactosidase) in L929 cells; type: cell-based; conditions: for Selectivity index (IC50/EC50): SI = LC50 (L929) / EC50 (intracellular forms); for EC90 / EC50: Tulahuen strain in L929 cells, 96 h, 95% confidence interval in brackets; for EC90: read-out: Activity against intracellular forms of the parasite EC90; for EC50: read-out: Activity against intracellular forms of the parasite EC50
Protocol: L929 cells were infected with trypomastigotes obtained from the supernatant of infected cultures. After 2 h of interaction (10 parasites per host cell), the parasites which were not internalized were removed by replacing the RPMI medium. After 48 h of incubation, the compounds were added to the infected cultures (0–10 μM, serially diluted 1:2) and the cultures incubated for 96 h at 37°C/5% CO2. BZ and DMSO (solvent used for the compounds) were run in parallel as positive and negative controls, respectively. After the elapsed time, 50 μL per well of chlorophenol red-β-D-galactopyranoside was added and a reading was done in a spectrophotometer at 570 nm (Romanha et al., [2010]).

in vitro = type: cell-based; conditions: mouse
Protocol: L929 culture cells were seeded in 96-well plates with 4 × 10^3 cells per well and sustained in RPMI medium supplemented with 10% FBS. The compounds were added (0–400 μM, serially diluted 1:2) and the non-infected cultures incubated for 96 h at 37°C/5% CO2. Then, their viability was assessed by Alamar Blue reagent following the manufacturer's specifications. Controls were carried out with parasites kept under the same conditions in the absence of the compounds.

[2] = test system: bloodstream trypomastigote forms of Trypanosoma cruzi (Y strain, DTU II); assay: In vitro activity against bloodstream trypomastigotes (Y strain); type: cell-based; conditions: 95% confidence interval in brackets
Protocol: Trypomastigote forms were incubated in 96-well microplates. Briefly, 100 μL of a BT suspension (in RPMI medium + 5% FBS) containing 10^7 parasites mL^−1 was added to the same volume of each compound diluted in RPMI + 5% FBS at twice of the desired final concentration (0–50 μM, serially diluted 1:2). After 2 and 24 h at 37°C, the number of live parasites was determined by light microscope quantification using a Neubauer chamber. Controls were carried out with parasites kept under the same conditions in the absence of the compounds. BZ was run in parallel.

[3] = test system: bloodstream trypomastigote forms of Trypanosoma cruzi (Y strain, DTU II); conditions: ref Simões-Silva et al. (2019), cited from earlier work; for EC50: read-out: Activity against bloodstream trypomastigotes EC50; for EC50 / EC90: Y strain; for EC90: read-out: Activity against bloodstream trypomastigotes EC90
[4] = test system: intracellular forms of Trypanosoma cruzi (Tulahuen strain, DTU VI); conditions: read-out: Activity against intracellular forms of the parasite EC50, ± S.D., ref Simões-Silva et al. (2019); cited from earlier work
L929 cells = test system: L929 cells; parameters: method as in Simões-Silva et al. (2019); conditions: ± S.D., ref Simões-Silva et al. (2019), read-out: Toxicity against L929 cells LC50; cited from earlier work
[5] = Trypanosoma cruzi, TULAHUEN, L929, 96 h

Q: With `Cc1ccc(CC(=O)c2cccc(OCCCCn3ccnc3)c2)cc1Nc1nccc(-c2cccnc2)n1` [LS2/97] as the compound, how does the “Selectivity index (IC50/EC50)” value [1] read?
A: 14.81

Q: And the EC90 [1, 5]?
A: > 10 µM

Q: What about the EC50 ([1]; Trypanosoma cruzi) of the same compound?
A: 1.3 µM

Q: And the CC50 at 96 h (in vitro)?
A: 19.3 µM

Q: And the EC50 ([2]; Trypanosoma cruzi, 2 h)?
A: 7.84 µM

Q: What about the EC90 ([2]; Trypanosoma cruzi, 2 h) of the same compound?
A: 11.4 µM

Q: And the EC50 ([2]; Trypanosoma cruzi, 24 h)?
A: 4.72 µM

Q: And the EC90 ([2]; Trypanosoma cruzi, 24 h)?
A: 8.52 µM

Q: Which “Selectivity index (IC50/EC50)” value [1] does the source give for `COc1cc(C(=O)Cc2ccc(C)c(Nc3nccc(-c4cccnc4)n3)c2)ccc1OCCCCn1ccnc1` [LS2/122] here?
A: 1.22

Q: What about the EC90 [1, 5] of the same compound?
A: > 10 µM

Q: What about the EC50 ([1]; Trypanosoma cruzi) of the same compound?
A: 4.47 µM

Q: And the CC50 at 96 h (in vitro)?
A: 5.44 µM

Q: What about the EC50 ([2]; Trypanosoma cruzi, 2 h) of the same compound?
A: 11.1 µM

Q: What about the EC90 ([2]; Trypanosoma cruzi, 2 h) of the same compound?
A: 22.1 µM

Q: And the EC50 ([2]; Trypanosoma cruzi, 24 h)?
A: 3.27 µM

Q: What about the EC90 ([2]; Trypanosoma cruzi, 24 h) of the same compound?
A: 5.34 µM

Q: For `COc1ccc(C(=O)Cc2ccc(C)c(Nc3nccc(-c4cccnc4)n3)c2)cc1OCCCCn1ccnc1` [LS2/116], which “Selectivity index (IC50/EC50)” value [1] is on record?
A: 3.49

Q: What about the EC90 [1, 5] of the same compound?
A: > 10 µM

Q: What about the EC50 ([1]; Trypanosoma cruzi) of the same compound?
A: 1.47 µM

Q: And the CC50 at 96 h (in vitro)?
A: 5.13 µM

Q: What about the EC50 ([2]; Trypanosoma cruzi, 2 h) of the same compound?
A: 12 µM

Q: And the EC90 ([2]; Trypanosoma cruzi, 2 h)?
A: 28.1 µM

Q: And the EC50 ([2]; Trypanosoma cruzi, 24 h)?
A: 3.89 µM

Q: And the EC90 ([2]; Trypanosoma cruzi, 24 h)?
A: 7.09 µM

Q: Which “Selectivity index (IC50/EC50)” value [1] does the source give for `Cc1ccc(CC(=O)c2ccccc2OCCCCn2ccnc2)cc1Nc1nccc(-c2cccnc2)n1` [LS2/98] here?
A: 3.93

Q: And the EC90 [1, 5]?
A: > 10 µM

Q: And the EC50 ([1]; Trypanosoma cruzi)?
A: 3.31 µM

Q: What about the CC50 at 96 h (in vitro) of the same compound?
A: 12.2 µM

Q: And the EC50 ([2]; Trypanosoma cruzi, 2 h)?
A: > 50 µM

Q: What about the EC90 ([2]; Trypanosoma cruzi, 2 h) of the same compound?
A: > 50 µM

Q: What about the EC50 ([2]; Trypanosoma cruzi, 24 h) of the same compound?
A: 9.59 µM

Q: And the EC90 ([2]; Trypanosoma cruzi, 24 h)?
A: 22 µM

Q: With `Cc1ccc(CC(=O)c2ccc(Br)cc2OCCCCn2ccnc2)cc1Nc1nccc(-c2cccnc2)n1` [LS2/128] as the compound, how does the “Selectivity index (IC50/EC50)” value [1] read?
A: 4.22

Q: What about the EC90 [1, 5] of the same compound?
A: > 10 µM

Q: And the EC50 ([1]; Trypanosoma cruzi)?
A: 4.25 µM

Q: And the CC50 at 96 h (in vitro)?
A: 17.9 µM

Q: And the EC50 ([2]; Trypanosoma cruzi, 2 h)?
A: 5.93 µM

Q: And the EC90 ([2]; Trypanosoma cruzi, 2 h)?
A: 8.93 µM

Q: What about the EC50 ([2]; Trypanosoma cruzi, 24 h) of the same compound?
A: 4.12 µM

Q: What about the EC90 ([2]; Trypanosoma cruzi, 24 h) of the same compound?
A: 5.69 µM

Q: Which results are given for `O=C(Cn1ccnc1[N+](=O)[O-])NCc1ccccc1` [BZ, benznidazole]?
A: activity against bloodstream trypomastigotes in words ([3]; after 2 h of drug exposure): completely inactive; EC50 ([3]; 2 h): > 50 µM; EC50 ([3]; 24 h, ± S.D.): 14.4 ± 3.4 µM; EC90 ([3]; 2 h): > 50 µM; EC90 ([3]; 24 h, ± S.D.): 22.8 ± 7.8 µM; EC50 [4]: 4.1 ± 1.3 µM; CC50 (L929 cells): > 400 µM

Q: What does the source list for `Cc1ccc(CC(=O)c2ccc([N+](=O)[O-])c(OCCCCn3ccnc3)c2)cc1Nc1nccc(-c2cccnc2)n1` [LS2/130]?
A: Selectivity index (IC50/EC50) [1]: 4.84; EC90 [1, 5]: 9.44 µM; EC50 ([1]; Trypanosoma cruzi): 1.05 µM; EC50 ([2]; Trypanosoma cruzi, 2 h): 5.69 µM; EC90 ([2]; Trypanosoma cruzi, 2 h): 7.31 µM; EC50 ([2]; Trypanosoma cruzi, 24 h): 3.4 µM; EC90 ([2]; Trypanosoma cruzi, 24 h): 4.8 µM

Q: Which “Selectivity index (IC50/EC50)” value [1] does the source give for `Cc1ccc(CC(=O)c2ccc(OCCCCn3ccnc3)c(Br)c2)cc1Nc1nccc(-c2cccnc2)n1` [LS2/89] here?
A: 64.74

Q: What about the EC90 [1, 5] of the same compound?
A: 1.6 µM

Q: What about the EC50 ([1]; Trypanosoma cruzi) of the same compound?
A: 0.19 µM

Q: And the EC90 [1]?
A: 1.68 µM

Q: And the CC50 at 96 h (in vitro)?
A: 12.3 µM

Q: And the EC90 ([2]; 24 h)?
A: 4.93 µM

Q: What about the EC50 ([2]; Trypanosoma cruzi, 2 h) of the same compound?
A: 4.83 µM

Q: What about the EC90 ([2]; Trypanosoma cruzi, 2 h) of the same compound?
A: 8.12 µM

Q: What about the EC50 ([2]; Trypanosoma cruzi, 24 h) of the same compound?
A: 2.67 µM

Q: And the EC90 ([2]; Trypanosoma cruzi, 24 h)?
A: 4.9 µM
